Columns and labels:
[1] = system: souches de S. aureus issues de prélèvements de plaies du pied infectées chez des patients diabétiques; assay: Antibiotic susceptibility test (MIC, 96-well microplate, OD 600 nm) in Mueller-Hinton medium (MH); assay type: cell-based; set-up: key to Classification (S) ou (R) en MH: S (sensible); R (résistante)
Description: (§1) • La Figure 1 représente des courbes de croissance de bactéries en fonction du milieu de culture. Sur cette figure, les ordonnées correspondent au logarithme d'unités formant colonie par millilitre de milieu de culture (Log UFC/ml) et les abscisses, au temps en heure (H). La Figure 1A représente les courbes correspondant à la croissance de 2 souches de S. aureus, Newman (gauche) et SAC1 (droite), dans le milieu BHI (courbe avec indicateurs ronds) et un exemple de milieu selon l'invention (MP) (courbe avec indicateurs carrés). La Figure 1B représente les courbes correspondant à la croissance de 2 souches de P. aeruginosa, PAO1 (gauche) et PAC1 (droite), dans le milieu BHI (courbe avec indicateurs ronds) et un exemple de milieu selon l'invention (MP) (courbe avec indicateurs carrés). La Figure 1C représente les courbes correspondant à la croissance de 2 souches cliniques S. aureus SAC1 et P. aeruginosa PAC1, en coculture dans le milieu BHI (P. aeruginosa BHI ou S. aureus BHI) et un exemple de milieu selon l'invention (MP) (P. aeruginosa MP ou S. aureus MP). La mesure de différence significative, réalisée par le test de Student, entre les valeurs d'UFC/mL est exprimée, soit par (***) qui correspond à une p-value <0,001, soit par (**) qui correspond à une p-value <0,01. • La Figure 2 représente les résultats obtenus d'une détermination de l'adhésion et de la formation de biofilm par dénombrement à 24h. Sur cette figure, les ordonnées correspondent au logarithme d'unités formant colonie par millilitre de milieu de culture (Log UFC/ml). La Figure 2A représente un histogramme ou diagramme en bâton du nombre de bactéries dénombrées suite à des cultures séparées de souche S. aureus Newman (Newman), S. aureus SAC1 (SAC 1), P. aeruginosa PAO1 (PAO1) ou P. aeruginosa PAC1 (PAC1), pendant 24H dans un milieu BHI (BHI) (bâtons noirs) ou dans un exemple de milieu selon l'invention (MP) (bâtons gris). La Figure 2B montre sous forme d'histogramme le nombre de bactéries dénombrées suite à des co-cultures des souches de référence S. aureus Newman et P. aeruginosa PAO1 (PAO1/Newman), ainsi que du couple de souches cliniques S. aureus SAC1 et P. aeruginosa PAC1 (PAC 1/SAC1), pendant 24H dans un milieu BHI (BHI) (bâtons noirs) ou dans un exemple de milieu selon l'invention (MP) (bâtons gris). La mesure de différence significative, réalisée par le test de Student, entre les valeurs d'UFC est exprimée, soit par (***) qui correspond à une p-value <0,001, soit par (**) qui correspond à une p-value <0,01. • La Figure 3 représente les résultats obtenus d'une détermination de sensibilité à des antibiotiques de souches cliniques de S. aureus issues d'infections de plaies du pied chez le diabétique. Les données cliniques, anonymisées, nécessaires à l'interprétation des résultats, consistaient en l'antibiothérapie donnée au patient, ainsi que la qualification par les médecins hospitaliers d'un succès ou échec thérapeutique. La définition de succès ou échec thérapeutique est définie comme suit. Le patient commence et suit l'antibiothérapie prescrite et un deuxième prélèvement microbiologique est effectué lors du dernier jour de traitement de la 1ère antibiothérapie (± 2 jours). Ce prélèvement est utilisé pour déterminer la présence/absence du pathogène ciblé par l'antibiothérapie, S. aureus. Si ce prélèvement a montré la persistance d'un S. aureus, l'antibiothérapie est en échec. A l'inverse, en cas d'absence de S. aureus, l'antibiothérapie est associée à un succès thérapeutique. Les antibiogrammes ont été réalisés classiquement sur une durée de 18h ± 2h en accord avec les recommandations de l'EUCAST. Une gamme de l'antibiotique à tester a été réalisée. • La Figure 3A montre sous forme d'histogramme les résultats des CMI déduites d'antibiogrammes sur 11 souches testées en présence d'amoxicilline / clavulanate de potassium (commercialisé par exemple sous le nom d'Augmentin (marque déposée)).

[2] = system: souches de S. aureus issues de prélèvements de plaies du pied infectées chez des patients diabétiques; assay: Antibiotic susceptibility test (MIC, 96-well microplate, OD 600 nm) in wound medium of the invention (MP); assay type: cell-based
Description: as §1

[3] = souche associée à un succès thérapeutique

## cotrimoxazole
[1]; souche C01P0 01
  CMI en milieu MH: 0,5 mg/L
  Classification (S) ou (R) en MH: (S)
[1]; souche C01P0 11
  CMI en milieu MH: 4 mg/L
  Classification (S) ou (R) en MH: (S)
[1]; souche C03P0 02
  CMI en milieu MH: 1 mg/L
  Classification (S) ou (R) en MH: (S)
[1]; souche C03P0 07
  CMI en milieu MH: 1 mg/L
  Classification (S) ou (R) en MH: (S)
[1]; [3]
  CMI dans le milieu MH: 4 mg/L
[2]; 3 souches associées à un échec thérapeutique
  CMI dans un exemple de milieu selon l'invention (MP): 16 mg/L
[2]; souche C01P0 01
  CMI en milieu plaie MP: 16 mg/L
  Classification (S) ou (R) en MP: (R) (valeur de CMI mesurée dans l'exemple de milieu selon l'invention supérieure au seuil et peuvent être classifiées comme résistantes (noté R dans le tableau 5B))
[2]; souche C01P0 11
  CMI en milieu plaie MP: 8 mg/L
  Classification (S) ou (R) en MP: (S) (avantageusement inférieur au seuil et peut être classifiée comme sensible (noté S dans le tableau 5B))
[2]; souche C03P0 02
  CMI en milieu plaie MP: 16 mg/L
  Classification (S) ou (R) en MP: (R) (valeur de CMI mesurée dans l'exemple de milieu selon l'invention supérieure au seuil et peuvent être classifiées comme résistantes (noté R dans le tableau 5B))
[2]; souche C03P0 07
  CMI en milieu plaie MP: 16 mg/L
  Classification (S) ou (R) en MP: (R) (valeur de CMI mesurée dans l'exemple de milieu selon l'invention supérieure au seuil et peuvent être classifiées comme résistantes (noté R dans le tableau 5B))
[2]; [3]
  CMI mesurée dans un exemple de milieu selon l'invention (MP): 8 mg/L
